In patent US11273172B2, “Synergistic combination of oligonucleotides and chemotherapeutic for treating cancer” (THE BOARD OF TRUSTEES OF THE UNIVERSITY OF ILLINOIS, priority 2017, dated 2022):
“And” between values parts separate entries of the source, which are not always exact repeats. Equal entries are not always repeated.

How the values were obtained:
Experiment in all cases: MTT cell death assay, chemotherapeutic with and without MADD siRNA knockdown
Format in all cases: cell-based
Settings in all cases: siRNA 10 nM
H2227 lung cancer cells = test system: H2227 lung cancer cells
Procedure: (§1) Cells are cultured and maintained at 37° C. in a humidified atmosphere containing 5% CO2 as described above. On Day 0, Cells are seeded in […] tissue culture dishes (Corning; Cat Number: 353003) to attain 60-70% confluence. In parallel, cells are also seeded in one 96-well plate (Corning; Cat number: 353072) for analysis of survival before reseeding. After 12-18 hours (Day 1), cells are transfected with Scramble or MADD siRNA at 10 nM concentration. The sequences of siRNAs (double-stranded) used are:
(§2) On Day 4, when cells are properly adhered and retained their shape in 96-well plates, drugs are added. All drugs are diluted in complete media on the same day prior to the addition to the cells. In untreated cells, media is replaced with complete media. Two hundred μl volume of media (with or without drugs) is used for the drug treatment assay. Plates are incubated 24 hours, 48 hours and 72 hours at 37° C. in humidified CO2 incubator.
(§3) An MTT assay is performed to determine relative survival after drug treatment as described above. MTT (3-[4,5-Dimethylthiazol-2-yl]-2,5-diphenyltetrazolium bromide; Thiazolyl blue) is purchased from Sigma Aldrich (Cat number: M5655). MTT is dissolved in sterile DPBS at the concentration of 5 mg/ml and filtered through […] syringe filter (Corning; Cat number: 431220). Ten μl of MTT solution is added per well of 96-well plate. Plates are incubated for 2 hours at 37° C. in the humidified CO2 incubator. After 2 hours, media is aspirated using vacuum inside the biosafety hood. Purple colored crystals formed in viable cells are dissolved by adding 100 μl of Dimethyl sulfoxide (Thermo Fisher Scientific; Cat number D128-500) Plates are kept on shaker for 10 minutes for compete dissolution of crystals and absorbance is recorded at 595 nm using Bio-Rad iMark microplate reader. Data is analyzed in MICROSOFT EXCEL® software. Relative survival is calculated with respect to absorbance of control (untreated cells) to determine the effect of transfection as well as combination treatment.
(§4) Each data set takes into account any spontaneous cell death which is observed upon transfection with Scramble siRNA; the amount of spontaneous cell death from Scramble siRNA transfection (baseline) is subtracted from the amount of cell death observed in each siRNA transfection reaction to yield a Net Percent (Net %) cell death after accounting for Scrambled siRNA-induced cell death.
as §1, with “(double stranded)” for “(double-stranded)”
as §2, with “added. Doxorubicin was added at a working concentration of 5.0 nM, 9.375 nM, 0.075 μM, 0.25 μM, 0.5 μM, and 0.8 μM.” for “added.”
(§5) An MTT assay is performed to determine relative survival after drug treatment as described above. MTT (3-[4,5-Dimethylthiazol-2-yl]-2,5-diphenyltetrazolium bromide; Thiazolyl blue) is purchased from Sigma Aldrich (Cat number: M5655). MTT is dissolved in sterile DPBS at the concentration of 5 mg/ml and filtered through […] syringe filter (Corning; Cat number: 431220). Ten μl of MTT solution is added per well of 96-well plate. Plates are incubated for 2 hours at 37° C. in the humidified CO2 incubator. […]

[1] = test system: K562 chronic myelogenous leukemia cells
Procedure: as §1, §2, §3, §4
as §1, with “(double stranded)” for “(double-stranded)”
as §2, with “added. Doxorubicin was added at a working concentration of 5.0 nM, 9.375 nM, 0.075 μM, 0.25 μM, 0.5 μM, and 0.8 μM.” for “added.”
as §5

[2] = test system: SU.86.86 pancreatic cancer cells
Procedure: as §1, §2, §3, §4
as §1, with “(double stranded)” for “(double-stranded)”
as §2, with “added. Doxorubicin was added at a working concentration of 5.0 nM, 9.375 nM, 0.075 μM, 0.25 μM, 0.5 μM, and 0.8 μM.” for “added.”
as §5

[3] = Sorafinib 3 μM, 48 hours post Sorafinib treatment
[4] = Sorafinib 0.3125 μM, 72 hours post Sorafinib treatment
[5] = Sorafinib 1.25 μM, 48 hours post Sorafinib treatment
[6] = Sorafinib 1.25 μM, 72 hours post-Sorafinib treatment
[7] = Sorafinib 5 μM, 24 hours post Sorafinib treatment
[8] = Doxorubicin 9.375 nM, 48 hours post Doxorubicin treatment
[9] = Gemcitabine 25 nM, 48 hours post Gemcitabine treatment
[10] = Doxorubicin 0.25 μM, 72 hours post Doxorubicin treatment
[11] = Doxorubicin 0.5 μM, 48 hours post Doxorubicin treatment
[12] = TRAIL 6.25 ng/ml, 72 hours post TRAIL treatment
[13] = TRAIL 12.5 ng/ml, 48 hours post TRAIL treatment
[14] = Doxorubicin 5 nM, 24 hours post Doxorubicin treatment

Molecule: CNC(=O)c1cc(Oc2ccc(NC(=O)Nc3ccc(Cl)c(C(F)(F)F)c3)cc2)ccn1 [Sorafinib]
- Net % cell death after accounting for Scrambled siRNA (H2227 lung cancer cells; [3]): 18%
- Observed % Cell death (H2227 lung cancer cells; [3]): 18%
- Net % cell death after accounting for Scrambled siRNA [1, 4]: 0%
- Observed % Cell death [1, 4]: 0%
- Net % cell death after accounting for Scrambled siRNA [1, 5]: 0%
- Observed % Cell death [1, 5]: 0%
- Net % cell death after accounting for Scrambled siRNA [2, 6]: 0%
- Observed % Cell death [2, 6]: 0%
- Net % cell death after accounting for Scrambled siRNA [2, 7]: 17%
- Observed % Cell death [2, 7]: 17%

Molecule: Scrambled siRNA: non-specific Scramble siRNA, negative control; SEQ ID NO: 5, 5′-UUGCUAAGCGUCGGUCAAUTT-3′ (chemistry not given here)
- Net % cell death after accounting for Scrambled siRNA (H2227 lung cancer cells; [8]): 28 − 28 = 0%
- Observed % Cell death (H2227 lung cancer cells; [8]): 28%
- Net % cell death after accounting for Scrambled siRNA (H2227 lung cancer cells; [9]): 28 − 28 = 0%
- Observed % Cell death (H2227 lung cancer cells; [9]): 28%
- Net % cell death after accounting for Scrambled siRNA (H2227 lung cancer cells; [3]): 28 − 28 = 0%
- Observed % Cell death (H2227 lung cancer cells; [3]): 28%
- Net % cell death after accounting for Scrambled siRNA [1, 10]: 12 − 12 = 0%
- Observed % Cell death [1, 10]: 12%
- Net % cell death after accounting for Scrambled siRNA [1, 11]: 49 − 49 = 0%
- Observed % Cell death [1, 11]: 49%
- Net % cell death after accounting for Scrambled siRNA [1, 4]: 12 − 12 = 0%
- Observed % Cell death [1, 4]: 12%
- Net % cell death after accounting for Scrambled siRNA [1, 5]: 49 − 49 = 0%
- Observed % Cell death [1, 5]: 49%
- Net % cell death after accounting for Scrambled siRNA [1, 12]: 12 − 12 = 0%
- Observed % Cell death [1, 12]: 12%
- Net % cell death after accounting for Scrambled siRNA [1, 13]: 49 − 49 = 0%
- Observed % Cell death [1, 13]: 49%
- Net % cell death after accounting for Scrambled siRNA [2, 14]: 11 − 11 = 0%
- Observed % Cell death [2, 14]: 11%
- Net % cell death after accounting for Scrambled siRNA [2, 6]: 28 − 28 = 0%
- Observed % Cell death [2, 6]: 28%
- Net % cell death after accounting for Scrambled siRNA [2, 7]: 11 − 11 = 0%
- Observed % Cell death [2, 7]: 11%

Molecule: MADD siRNA: siRNA targeting exon 13L of the MADD splice variant of the IG20 gene; SEQ ID NO: 4, 5′-GAUUGUCAUAGAUUCGCCGTT-3′ (chemistry not given here)
- Observed % Cell death (H2227 lung cancer cells; [8]): 35%
- Observed % Cell death (H2227 lung cancer cells; [9]): 35%
- Observed % Cell death (H2227 lung cancer cells; [3]): 35%
- Net % cell death after accounting for Scrambled siRNA [1, 10]: 47% and 59 − 12 = 47%
- Observed % Cell death [1, 10]: 59%
- Observed % Cell death [1, 11]: 53%
- Net % cell death after accounting for Scrambled siRNA [1, 4]: 47% and 59 − 12 = 47%
- Observed % Cell death [1, 4]: 59%
- Observed % Cell death [1, 5]: 53%
- Net % cell death after accounting for Scrambled siRNA [1, 12]: 47% and 59 − 12 = 47%
- Observed % Cell death [1, 12]: 59%
- Observed % Cell death [1, 13]: 53%
- Net % cell death after accounting for Scrambled siRNA [2, 14]: 0% and 9 − 11 = 0%
- Observed % Cell death [2, 14]: 9%
- Observed % Cell death [2, 6]: 41%
- Net % cell death after accounting for Scrambled siRNA [2, 7]: 0% and 9 − 11 = 0%
- Observed % Cell death [2, 7]: 9%

B1: TRAIL: cytotoxic protein which induces apoptosis in tumor cells, but not in normal cells (protein, UniProt P50591 1-281, looked up)
Tumor necrosis factor ligand …: MAMMEVQGGPSLGQTCVLIVIFTVLLQSLCVAVTYVYFTNELKQMQDKYSKSGIACFLKEDDSYWDPNDEESMNSPCWQVKWQLRQLVRKMILRTSEETISTVQEKQQNISPLVRERGPQRVAAHITGTRGRSNTLSSPNSKNEKALGRKINSWESSRSGHSFLSNLHLRNGELVIHEKGFYYIYSQTYFRFQEEIKENTKNDKQMVQYIYKYTSYPDPILLMKSARNSCWSKDAEYGLYSIYQGGIFELKENDRIFVSVTNEHLIDMDHEASFFGAFLVG
- Net % cell death after accounting for Scrambled siRNA [1, 12]: 0%
- Observed % Cell death [1, 12]: 0%
- Net % cell death after accounting for Scrambled siRNA [1, 13]: 0%
- Observed % Cell death [1, 13]: 0%
